From ChEMBL document CHEMBL1201862, “PubChem BioAssay data set” (2004)
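Each compound was tested at five concentrations against cells in 96-well plates for 48 hours. GI50: concentration for 50% inhibition of growth.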 Active and inactive are the calls of the source. Rule as the data show it: active = GI50 up to about 1.1 µM and inactive = higher.

Tests used:
Assay in all cases: DTP human tumour cell line panel, 48 h
A498 = system: A498
A549 = system: A549
DU-145 = system: DU-145
HL-60 = system: HL-60
HOP-62 = system: HOP-62
HOP-92 = system: HOP-92
HT-29 = system: HT-29
MDA-MB-435 = system: MDA-MB-435
MOLT-4 = system: MOLT-4
Malme-3M = system: Malme-3M
NCI-H23 = system: NCI-H23
OVCAR-5 = system: OVCAR-5
OVCAR-8 = system: OVCAR-8
SF-268 = system: SF-268
SF-295 = system: SF-295
SNB-19 = system: SNB-19
SW-620 = system: SW-620
T47D = system: T47D
U-251 = system: U-251
MCF7 = system: MCF7

Measured: GI50

O=[N+]([O-])c1cc(-c2ccc([As](=O)(O)O)cc2)ccc1[As](=O)(O)O
inactive: A498 > 100 µM | A549 > 100 µM | DU-145 > 100 µM | HL-60 > 100 µM | HOP-62 > 100 µM | HOP-92 > 100 µM | HT-29 > 100 µM | MDA-MB-435 > 100 µM | MOLT-4 > 100 µM | Malme-3M > 100 µM | NCI-H23 > 100 µM | OVCAR-5 > 100 µM | OVCAR-8 > 100 µM | SF-268 > 100 µM | SF-295 > 100 µM | SNB-19 > 100 µM | SW-620 > 100 µM | T47D > 100 µM | U-251 > 100 µM

COc1cc2nc(-c3ccc4ccccc4c3)nc(O)c2cc1OC
inactive: A498 72.9 µM | A549 > 100 µM | DU-145 > 100 µM | HL-60 > 100 µM | HOP-62 19 µM | HOP-92 37.5 µM | HT-29 > 100 µM | MCF7 > 100 µM | MOLT-4 > 100 µM | Malme-3M 49.2 µM | NCI-H23 49.2 µM | OVCAR-5 > 100 µM | OVCAR-8 43.2 µM | SF-268 19.1 µM | SF-295 48.9 µM | SNB-19 23.8 µM | T47D > 100 µM

O=C(O)CC(NC(=O)Nc1ccc([N+](=O)[O-])cc1)C(=O)Nc1ccc([N+](=O)[O-])cc1 (stereo not given)
inactive: A498 > 100 µM | A549 > 100 µM | DU-145 > 100 µM | HOP-62 > 100 µM | HT-29 > 100 µM | MCF7 > 100 µM | MDA-MB-435 > 100 µM | MOLT-4 > 100 µM | Malme-3M > 100 µM | NCI-H23 > 100 µM | OVCAR-5 > 100 µM | OVCAR-8 > 100 µM | SF-268 9.44 µM | SF-295 > 100 µM | SNB-19 > 100 µM | SW-620 > 100 µM | T47D > 100 µM | U-251 > 100 µM

CC(C)N1CCCOC(c2ccc([N+](=O)[O-])cc2)O1 (stereo not given)
inactive: A498 > 100 µM | A549 > 100 µM | DU-145 > 100 µM | HOP-62 > 100 µM | HOP-92 > 100 µM | HT-29 > 100 µM | MCF7 80.9 µM | MDA-MB-435 > 100 µM | MOLT-4 > 100 µM | Malme-3M > 100 µM | NCI-H23 > 100 µM | OVCAR-5 > 100 µM | OVCAR-8 > 100 µM | SF-268 > 100 µM | SF-295 > 100 µM | SNB-19 > 10 µM | SW-620 > 100 µM | T47D > 100 µM | U-251 > 100 µM

C(=C\c1ccccc1)/Cn1nc(-c2ccccc2)nc1-c1cnccn1
inactive: A549 > 100 µM | DU-145 > 100 µM | HL-60 > 100 µM | HOP-62 > 100 µM | HOP-92 35.9 µM | HT-29 > 100 µM | MCF7 > 100 µM | MDA-MB-435 > 100 µM | MOLT-4 > 100 µM | NCI-H23 > 100 µM | OVCAR-5 > 100 µM | OVCAR-8 > 100 µM | SF-268 > 100 µM | SF-295 > 100 µM | SNB-19 > 100 µM | SW-620 > 100 µM | T47D > 100 µM | U-251 > 100 µM

CC(=O)NC(C)(C)C1CCC(C)=C(c2ccccc2)C1 (stereo not given)
inactive: A549 > 100 µM | DU-145 > 100 µM | HL-60 31.1 µM | HOP-62 > 100 µM | HOP-92 19.5 µM | HT-29 > 100 µM | MCF7 > 100 µM | MDA-MB-435 > 100 µM | MOLT-4 > 100 µM | NCI-H23 > 100 µM | OVCAR-5 > 100 µM | OVCAR-8 > 100 µM | SF-268 > 100 µM | SF-295 > 100 µM | SNB-19 > 100 µM | SW-620 > 100 µM | T47D > 100 µM | U-251 80 µM

Cc1ccc(C(=O)/C=C2\Nc3ccccc3S\C2=N\CS(=O)(=O)c2ccc(C)cc2)cc1
inactive: A549 > 10 µM | DU-145 > 10 µM | HL-60 7.41 µM | HOP-62 7.8 µM | HOP-92 > 10 µM | HT-29 > 10 µM | MCF7 4.3 µM | MDA-MB-435 > 10 µM | MOLT-4 > 10 µM | Malme-3M > 10 µM | NCI-H23 > 10 µM | OVCAR-5 > 10 µM | OVCAR-8 > 10 µM | SF-268 > 10 µM | SF-295 > 10 µM | SNB-19 > 10 µM | SW-620 > 10 µM | T47D 8.2 µM | U-251 > 10 µM

CC(=O)N1C(=O)/C(=C\C(=O)c2ccc([N+](=O)[O-])cc2)c2ccccc21
inactive: A498 > 100 µM | A549 > 100 µM | DU-145 67 µM | HOP-62 36.4 µM | HT-29 17.8 µM | MCF7 21.3 µM | MDA-MB-435 25.6 µM | MOLT-4 19.5 µM | Malme-3M 20.7 µM | NCI-H23 28.9 µM | OVCAR-5 54.2 µM | OVCAR-8 47.5 µM | SF-268 22.6 µM | SF-295 > 100 µM | SNB-19 43.2 µM | T47D 20.5 µM | U-251 21.1 µM

O=C(c1ccccc1)c1ccc2[nH]c(-c3c(Cl)c(Cl)c(Cl)c(Cl)c3C(=O)N/N=C\C=C\c3ccccc3)nc2c1
inactive: A549 50.1 µM | DU-145 73.1 µM | HL-60 37.8 µM | HOP-62 54.1 µM | HOP-92 41.1 µM | HT-29 45 µM | MCF7 20.7 µM | MDA-MB-435 30.1 µM | MOLT-4 17.7 µM | Malme-3M 57.3 µM | NCI-H23 59.3 µM | OVCAR-5 > 100 µM | OVCAR-8 60 µM | SF-268 38.6 µM | SF-295 38.9 µM | SNB-19 66.2 µM | SW-620 54.1 µM | T47D 16.5 µM | U-251 68.9 µM

CCCC(=O)NC1=C(NCC)C(=O)c2ccccc2C1=O
inactive: A549 > 100 µM | DU-145 > 100 µM | HL-60 40.5 µM | HOP-62 > 100 µM | HOP-92 > 100 µM | HT-29 44.1 µM | MCF7 63.5 µM | MDA-MB-435 25.2 µM | MOLT-4 73.3 µM | Malme-3M 38.5 µM | NCI-H23 > 100 µM | OVCAR-5 > 100 µM | SF-268 > 100 µM | SF-295 > 100 µM | SNB-19 > 100 µM | SW-620 33.4 µM | T47D > 100 µM | U-251 > 100 µM

CC(C)CC(NC(=O)C(Cc1ccccc1)NC(=O)[C@H]1CC[C@H](NC(=O)C(Cc2ccc(OC(C)(C)C)cc2)NC(=O)OC(C)(C)C)C1)C(N)=O (stereo not given in full)
inactive: A498 39.7 µM | A549 50.9 µM | HL-60 67 µM | HOP-62 36.2 µM | HOP-92 23.8 µM | HT-29 18.9 µM | MCF7 17.3 µM | MDA-MB-435 18.7 µM | MOLT-4 12.5 µM | Malme-3M 26.4 µM | NCI-H23 16.2 µM | OVCAR-5 31 µM | OVCAR-8 18.4 µM | SF-268 24.6 µM | SF-295 28.8 µM | SNB-19 38.4 µM | SW-620 29.2 µM | T47D 18.5 µM | U-251 14.8 µM

Cc1cn(CC2=NCC(C)N2)c(=O)[nH]c1=O (stereo not given)
inactive: A498 > 100 µM | A549 > 100 µM | DU-145 > 100 µM | HOP-62 > 100 µM | HOP-92 > 100 µM | HT-29 > 100 µM | MCF7 > 100 µM | MOLT-4 > 100 µM | Malme-3M > 100 µM | NCI-H23 > 100 µM | OVCAR-5 > 100 µM | OVCAR-8 > 100 µM | SF-268 > 100 µM | SF-295 > 100 µM | SNB-19 > 100 µM | SW-620 > 100 µM | T47D > 100 µM | U-251 > 100 µM

Cn1c(=O)c2c(nc3[nH]c(=O)c(Br)cn32)n(C)c1=O
inactive: A498 > 100 µM | A549 > 100 µM | DU-145 > 100 µM | HL-60 > 100 µM | HOP-62 > 100 µM | HOP-92 > 100 µM | HT-29 > 100 µM | MDA-MB-435 > 100 µM | MOLT-4 > 100 µM | NCI-H23 > 100 µM | OVCAR-5 > 100 µM | OVCAR-8 > 100 µM | SF-268 > 100 µM | SF-295 > 100 µM | SNB-19 > 100 µM | SW-620 > 100 µM | T47D > 100 µM | U-251 > 100 µM

CC(=O)Nc1ccc(CNc2cc(=O)n(C)c(=O)[nH]2)cc1
inactive: A549 > 100 µM | DU-145 > 100 µM | HL-60 > 100 µM | HOP-62 > 100 µM | HOP-92 > 100 µM | HT-29 > 100 µM | MCF7 > 100 µM | MDA-MB-435 > 100 µM | MOLT-4 > 100 µM | Malme-3M > 100 µM | NCI-H23 > 100 µM | OVCAR-5 > 100 µM | OVCAR-8 > 100 µM | SF-268 > 100 µM | SF-295 > 100 µM | SNB-19 > 100 µM | SW-620 > 100 µM | T47D > 100 µM | U-251 > 100 µM

c1cc(-c2ccsc2-c2ccsc2)cs1
inactive: A498 > 100 µM | A549 46.3 µM | HL-60 37.5 µM | HOP-62 77.3 µM | HOP-92 > 92.3 µM | HT-29 > 100 µM | MCF7 > 60.4 µM | MDA-MB-435 36.6 µM | MOLT-4 25.2 µM | Malme-3M 26.9 µM | NCI-H23 46.3 µM | OVCAR-5 > 100 µM | OVCAR-8 > 100 µM | SF-268 > 86.1 µM | SF-295 > 81.1 µM | SNB-19 > 100 µM | SW-620 > 91.8 µM | T47D 58.1 µM | U-251 > 100 µM
